For experiment [1], the system named is glutathione peroxidase (GPx). Nature of the experiment: Antioxidant assay: glutathione peroxidase (GPx) activity in cell lysate. The experiment is classed as cell-based, Human. The note with it: UV-exposed keratinocytes. Here is the method:
(§1) Cellular anti-oxidants are depleted by pollutants. The ability of plant actives to increase these anti-oxidant enzymes in the cells was studied in vitro. Human HaCaT keratinocyte cells were seeded at a density of 5×10^5 cells, well in 6 well plates. The cells were pretreated for one hour with plant actives and exposed to UVA intensity of 17 Joules/m2 for 50 mins. Cells were washed with sterile buffer and fresh culture medium (2% of FBS) with respective concentrations of plant actives were added followed by incubation for 24 hours at 37° C. in a CO2 incubator. Cell lysate were prepared and superoxide dismutase (SOD) levels and glutathione peroxidase (GPx) were estimated.
Glutathione peroxidase activity was determined according to the method of Hafeman et al. (1974). Glutathione peroxidase degrades H2O2 in presence of glutathione (GSH) thereby depleting it. GSH remaining is measured using DTNB, which gives a colored complex.
To a volume of 100 μl of cell lysate, 0.2 mM GSH, 0.05 mM H2O2 and 1 mM NaN3 in a total volume of 250 μl with 1M sodium phosphate buffer (pH 7.0). The reaction was incubated at 37° C. for 10 min and stopped by adding 50 μl of 25% TCA. […] The intensity of yellow color formation was measured at 412 nm after incubation at 37° C. for 10 min The enzyme activity was expressed as units/mg protein.

Experiment [2] in a line: DPPH free radical scavenging assay. The text has this:
Reactive oxygen species (ROS) including superoxide, hydroxyl, peroxyl, and alkoxy radicals are produced by normal metabolic processes. Under normal condition, these free radicals are scavenged by the cellular anti-oxidants and remain in equilibrium. Radiations, toxins and pollutants increase the ROS which can induce oxidative damage to biomolecules such as lipids, nucleic acids, proteins and carbohydrates. These ROS induced damage causes skin irritation, inflammation, ageing, cancer and many other diseases, α, α-diphenyl-β-picrylhydrazyl (DPPH) free radical scavenging method is one of the first approach for evaluating the antioxidant potential of a compound.
Reagents: 0.1 mM of DPPH in ethanol, 0.1M phosphate buffered saline (pH 7.4)
DPPH is a stable free radical in a methanolic solution with an absorbance at 520 nm. If the free radicals are scavenged by an anti oxidant molecule, the resulting solution appears yellow. The hydrogen atoms or electrons donation ability of the extracellular metabolite was measured by the bleaching of purple coloured DPPH methanol solution.
Different concentrations of various plant actives were diluted in methanol. For the DPPH radical scavenging assay, 20 μL of different concentration of sample was mixed with 180 μL of DPPH in methanol in a 96 well plate following the method as described earlier (Clarke et al., 2013). The plate was kept in the dark for 15 min. after which the absorbance of the solution was measured at 540 nm using a microplate reader (TECAN Ltd, Männedorf. Switzerland). Blanks (DMSO, methanol) and standard (TBHQ solution in methanol) were recorded simultaneously. The extracts were screened with variable concentrations to establish the inhibition concentration (IC50, the concentration reducing DPPH absorbance by 50%).
The free radical scavenging activity was calculated as follows.
[formula] Where, B=Absorbance of reference solution (OD of DPPH) C=Absorbance of reference solution blank (OD of Methanol only) S=Absorbance of test solution C=Absorbance of test solution blank
(The DPPH test is a chemical assay of radical scavenging.)

Experiment [3] relates to Human HaCaT keratinocyte cells/mouse fibroblast cells. Nature of the experiment: ROS assay (DCFH-DA) after exposure to heavy metals, UVA or UVB. The experiment is classed as cell-based. The text has this:
A cell permeable, non-fluorescent dye, 2′,7′-dichlorofluorescein diacetate (DCFH-DA) enters the cell and the acetate group on DCFH-DA is cleaved by cellular esterases, trapping the non-fluorescent DCFH inside the cell. Subsequent oxidation by reactive oxygen species generated in the cells, yields the fluorescent DCF which can be detected at 485/520 Ex:Em wavelength. The scavenging activity of sample is indicated by the decrease in fluorescence when compared to the control without antioxidant.
Human HaCaT keratinocyte cells/mouse fibroblast cells were maintained in DMEM containing 25 mM glucose with 10% heat-inactivated fetal calf serum with antibiotics at 37° C. and 5% CO2. When the cells were 70-80% confluent, they were trypsinized, washed and seeded in 96 well plates at a density seeded at a density of 5×10^4 cells/well. Cells were allowed to adhere for overnight. Cells were pretreated with varying non toxic concentrations of different plant actives for 60 minutes before exposing to the pollutant. Cells were exposed to the following pollutants in the presence of plant actives.
UVA intensity of 15 Joules/m2 for 60 mins,
UV-B intensity of 4.6 Joule/m2 for 10 mins
Heavy metals (Cobalt chloride and Lead Nitrate at 0.25 mm each) for 6 hours
Intracellular ROS was determined after the specific treatment period by adding freshly prepared DCFH-DA reagent to all the wells at a concentration of 10 μg/well and incubated at 37° C. for 30 mins. The fluorescence was recorded at a wavelength of 485:520 (Ex:Em) nm in BMG FluoStar Optima microplate reader.

Experiment [4] deals with Collagenase Type IV from Clostridium histolyticum. The experiment is described as follows: Anti-collagenase activity (DQ gelatin, fluorescence). It is filed as biochemical. The text has this:
Collagenase is one of the matrix metalloprotease, which digest collagen and other components of the extra cellular matrix (ECM). The ECM serves as a scaffold to stabilize the skin structure, and also helps in proliferation and metabolic functions of the skin cells. Loss of collagen leads to wrinkles and sagging of skin. The principle of the assay of collagenase inhibition is based on the fact that the substrate DQ™ gelatine is conjugated to fluorecein—a fluorescent compound. In DQ™ gelatine, fluorescence is quenched. DQ™ gelatine is efficiently digested by collagenases to yield a fluorescent compound which can be measured. The increase in fluorescence is proportional to enzyme activity. In the presence of an anti-collagenase compound the amount of fluorescence will be decreased for a fixed concentration of enzyme and substrate.
Collagenase Enzyme assay kit (Enzchek® collagenase, gelatinase assay kit, Invitrogen, USA)
The assay was performed in a 96 well black microtitre plate. Type IV from Clostridium histolyticum with DQ gelatin as substrate was used for the assay. Different concentrations of various plant actives were pre incubated with 20 µl of gelatin substrate (12.5 µg/ml). 100 µl of the Collagenase enzyme solution (final concentration—0.4 U/ml) was added and the fluorescence intensity was measured at […] after 30 minutes. Enzyme activity of control (buffer) was recorded
The percentage inhibition is calculated as follows:—
[formula] B—Fluorescence in the presence of enzyme. BC—Fluorescence in the absence of enzyme activity T—Fluorescence of enzyme activity in the presence of inhibitor TC—Fluorescence of the inhibitor alone

For the next experiment, the system named is IL-8. Nature of the experiment: Anti-inflammatory activity: IL8 in assay supernatants by ELISA. The experiment is classed as cell-based. Here is the method:
IL8 in the assay supernatants were measured using Duoset ELISA kit (R & D systems, Cat No. DY208)
For orientation: In an ELISA, binding on a coated surface is turned into a signal by an enzyme label.

Experiment [5] concerns Human HaCaT keratinocyte cells. Nature of the experiment: Protection against polycyclic aromatic hydrocarbons (BaP) in the presence of UVA, neutral red uptake. The experiment is classed as cell-based. The note with it: for % Protection against BaP: individual active, UVA-BaP. The text has this:
Polycyclic aromatic hydrocarbons (PAHs) are a class of mutagenic and tumorigenic environmental contaminants. PAHs are widespread in the environment produced from incomplete combustion of natural materials and tobacco smoke (Connell, D. W.; Hawker, D. W.; Warne, M. J.; Vowles. P. P.; Polycyclic aromatic hydrocarbons (PAHs). In Introduction into Environmental Chemistry (McCombs. K., and Starkweather, A. W., eds), 1997, pp. 205-217, CRC Press LLC, Boca Raton, Fla. 2. Shaw, G. R.; Connell, D. W.: Prediction and monitoring of the carcinogenicity of polycyclic aromatic compounds (PACs). Rev. Environ. Contam. Toxic., 1994, 135, 1-62.) PAHs themselves are biologically inert and require metabolic activation. in order to exert genotoxicity PAHs absorb light in the UVA region, react with oxygen or other molecules to generate reactive intermediates (Yu H, Xia Q, Yan J, et al. Photoirradiation of polycyclic aromatic hydrocarbons with UVA light—a pathway leading to the generation of reactive oxygen species, lipid peroxidation, and dna damage. Int J Environ Res Public Health. 2006; 3:348-354) Thus, PAHs can be “activated” by light irradiation to cause photo-induced cytotoxicity. Thus photoirradiation of PAHs with UVA irradiation represents a pollutant which causes cytotoxicity and DNA damage.
Human HaCaT keratinocyte cells were seeded at a density of 1×10^4 cells/well in 96 well plates. Cells were allowed to adhere for overnight. They were pretreated with Benzo(a)pyrene a PAH at 0.5 mM concentration along with different concentrations of plant actives for 50 minutes, exposed to UVA at an intensity of 17 Joules m2. Cells were washed with sterile buffer and fresh culture medium (2% of FBS) with respective concentrations of plant actives were added followed by incubation for 24 hours at 37° C. in a CO2 incubator. Neutral Red (25 μg/mL) (3-amino-7-dimethylamino-2-methylphenazine hydrochloride), was added to the cells for 3 hours. The uptake of NR by the cells was determined by lysing the cells and reading the absorbance at 540 nm in a Tecan microplate reader (TECAN Ltd, Männedorf, Switzerland)

Experiment [6] deals with superoxide dismutase (SOD). Nature of the experiment: Antioxidant assay: superoxide dismutase (SOD) activity in cell lysate, WST-1 method. It is filed as cell-based, Human. The conditions noted are these: UV-exposed keratinocytes. Here is the method: as §1
The activity of SOD in the cell lysate was measured by WST-1 method using a kit as per the manufacturer's instructions (Elabsciences). Xanthine Oxidase (XO) can catalyze WST-1 react with O2. —to generate a water-soluble formazan dye. SOD can catalyze the disproportionation of superoxide anions, so the reaction can be inhibited by SOD, and the activity of SOD is negatively correlated with the amount of formazan dye. Therefore, the activity of SOD can be determined by the colorimetric analysis of WST-1 products.
(Formazan colour is commonly taken as a measure of viable cells.)

One may read the inhibition as the relative decrease from the control value, in per cent. As for `Oc1cc(O)cc(/C=C/c2ccc(O)cc2O)c1` [Oxyresveratrol, oxyresveratrol], the glutathione peroxidase activity result in experiment [1] is “restored normal enzyme activity”; in experiment [1] (listed as 95% oxyresveratrol) it was “dose dependant decrease”. In addition, the “DPPH radical scavenging % inhibition” value in experiment [2] (0.3125 μg/ml) was determined as 22.9%; in experiment [2] (0.625 μg/ml), 42.07%; in experiment [2] (1.25 μg/ml), 68.63%; in experiment [2] (2.5 μg/ml), 77.89%; in experiment [2] (5.00 μg/ml), 84.14%. Further, the “DPPH radical scavenging IC50” value in experiment [2] (concentration reducing DPPH absorbance by 50%) was determined as 0.61 µg/mL. For the same compound, the “ROS generated by exposure to UVA” value in experiment [3] (UVA 60 mins) is “reduced the ROS”. Also, the “ROS generated by exposure to UVB” value in experiment [3] (UVB 10 mins) is “reduced the ROS”. Moreover, the “ROS generated by exposure to heavy metals” value in experiment [3] (heavy metals (cobalt chloride and lead nitrate) 6 hours) is recorded as “reduced the ROS”. The “Anti-collagenase activity % inhibition” value in experiment [4] (12.5 μg/ml) is given as 0.05%; in experiment [4] (25 μg/ml) it was 9.93%; in experiment [4] (50 μg/ml) it was 41.19%; in experiment [4] (100 μg/ml), 80.92%. At 3.125 µg/mL the inhibition in the experiment with IL-8 (3.125 μg/ml) was 13.3%. For the same compound, in the experiment on IL-8 (6.25 μg/ml), at 6.25 µg/mL the inhibition was 18.4%. The “protection against UVA+BaP” value in experiment [5] (concentrations of 3.12-12.5 μg/ml) is on record as “dose dependant protection”. Also, in experiment [5] (6.25 μg/ml), the “% Protection against BaP” value was determined as 28.04%. Also, the values for the superoxide dismutase activity entry in experiment [6] and in experiment [6] (listed as 95% oxyresveratrol) were “restored normal enzyme activity” and “dose dependant increase”, respectively.

As to `COc1cc(CCC(=O)CC(=O)CCc2ccc(O)c(OC)c2)ccc1O` [Tetrahydrocurcumin, tetrahydrocurcumin], in the experiment with IL-8 (read-out: % inhibition of IL-8), the inhibition at 12.5 µg/mL stood at 6.07% and the inhibition at 25 µg/mL came to 11.7%. For the same compound, the “% Protection against BaP” value in experiment [5] (5 μg/ml) was “No activity”.

In the case of `COc1cc(/C=C/c2ccc(O)cc2)cc(OC)c1` [Pterostilbene, pterostilbene], in experiment [5] (2.5 μgml), the “% Protection against BaP” value is recorded as “No activity”.

Source of the values: patent publication US11351102B2, “Plant actives and their anti-pollution effects thereof” (SAMI-SABINSA GROUP LIMITED, priority 2019, dated 2022).
